Test results reported in US8653048B2 (Sanlugen Pharmatech Ltd., priority 2009, dated 2014).

Experiments:
[1] = system: H460 cells, a human lung cancer cell line, inoculated in nude mice; assay: H460 tumor in nude mice, oral administration of SL-01; assay type: in vivo, Balb/c female nude mice; details: for Tumor Weight, Average Value: end of the experiment; for drop of animal weight: figure fits day 22 versus negative control (Table 13)
Procedure: 1. […] Suspension formulation was prepared using 2.5% starch for intragastric administration. […] In the test, it was dissolved in normal saline and filtered with microfiltration membrane and administrated by tail vein injection. Positive control drug: Ftorafur (FT-207) produced by Qilu Pharmaceutical Co. Ltd., oral formulation.
2. Experimental animals: 50 Balb/c female nude mice at 4-5 weeks old, purchased from Peking University Health Science Center.
1. Culture of tumor cells: H460 cells were cultured in an incubator with 5% CO2 at 37° C. using RPMI-1640 nutrient solution containing 10% fetal calf serum. The cells were passaged through routine method.
2.2 Method of inoculating tumor cells in nude mice: cells were collected when they grew to about […] in culture flasks. Cells were washed twice with PBS before they were digested, then 1.5 mL of digestion solution juices was added into every bottle. They were observed under a microscope and the digestion was terminated after the cells were shed. Cell suspension was collected into 50 mL of centrifugal tube and centrifuged and washed twice with PBS. It was counted and suspended with 10 mL of normal saline to get the tumor cell suspension of inoculated nude mice. The tumor cells (1×10^7/0.2 mL) were inoculated in the left front armpits of mice. The tumor growth was observed after the inoculation.
4. Evaluation protocols for drug treating effect: these mice were weighed before drug administration and every week thereafter. The long tumor pathline (a) and the short tumor pathline (b) were measured at the same time. The formula for calculating the tumor volume is V=(a×b^2)/2. Mice were euthanized after drug administration for 3 weeks. The tumor was taken out and weighed. […] W was the tumor weight of the treatment group.

[2] = Pharmacokinetics of SL-01 and SL-02 in mice, intragastric; assay type: in vivo; details: both sexes, Kunming, mouse, plasma, po, SL-01 100 mg/kg intragastric
Procedure: (§1) Kunming strain white mice (25+1 g, provided by Experimental Animal Center of Shandong University, half of which were male, half were female).
125 mg of SL-01 or SL-02 were weighed accurately and added into 10 mL volumetric flask. Water (containing 0.1% Tween-80) was added to the mark and mixed uniformly to get the suspensions of SL-01 or SL-02.
100 healthy Kunming mice were taken and divided into two groups randomly. The first group was given SL-01 and the second group was given SL-02. Five mice were settled parallel at each time point. SL-01 and SL-02 were administrated intragastricly with a dosage at 100 mg/kg (equivalent to 0.2 mL per mouse). The mice were fasted but allowed to drink for a 12 h period before administration. Blood samples were drawn from eyebase veniplex at 5 min, 15 min, 30 min, 45 min, 1 h, 2 h, 4 h, 6 h, 8 h, 12 h, 24 h, 48 h after the administration and put into heparin sodium treated centrifuge tubes containing 2.5 μL tetrahydrouridine solution (THU, 10 mg/ml) and centrifuged for 15 min at 4000 r/min. Isopropanol (1 mL) was added into the solution and vortexed for 30 s and kept still for 5 min. 2.5 ml of EtOAc was added and votexed and centrifuged at 4000 rpm for 15 minutes. The supernatant was taken and dried by blowing in nitrogen. The dried sample was redissolved in 200 μL HPLC mobile phase solution. 20 μL sample was loaded to the HPLC. The chromatography and peak area was recorded. The plasma concentrations of SL-01 and SL-02 was calculated. The average concentration of SL-01 and SL-02 was plotted with the time.

[3] = Pharmacokinetics of gemcitabine in mice, intravenous and oral; assay type: in vivo; details: both sexes, Kunming, mouse, plasma, 50 mg/kg; for MRT last: read-out: MRT0-t
Procedure: as §1
The solution was filtered and sterilized using a 0.22 μm microfiltration membrane.
120 healthy Kunming mice were taken and divided into two groups randomly. […] The second group was given gemcitabine by intravenous injection in a tail vein. Five mice were settled parallel at each time point. The dosage was 50 mg/kg (equivalent to 0.2 mL per mouse). The mice were fasted but allowed to drink for a 12 h period before administration. Blood samples were drawn from eyebase veniplex at 5 min, 15 min, 30 min, 45 min, 1 h, 2 h, 4 h, 6 h, 8 h, 12 h, 24 h, 48 h after the administration and put into hepain sodium treated centrifuge tubes containing 2.5 μL tetrahydrouridine solution (THU, 10 mg/ml) and centrifuged for 15 min at 4000 r/min. Isopropanol (1 mL) was added into the solution and vortexed for 30 s and kept still for 5 min. 2.5 ml of EtOAc was added and votexed and centrifuged at 4000 rpm for 15 minutes. The supernatant was taken and dried by blowing in nitrogen. The dried sample was redissolved in 200 μL HPLC mobile phase solution. 20 μL sample was loaded to the HPLC. The chromatography and peak area were recorded.

[4] = SL-01 middle dosage 60 mg/kg gavage
[5] = SL-01 middle dosage group 60 mg/kg gavage
[6] = SL-01 small dosage 30 mg/kg gavage
[7] = SL-01 small dosage group 30 mg/kg gavage

In the case of CCCCCCCCCCCCOC(=O)c1nccnc1C(=O)Nc1ccn([C@@H]2O[C@H](CO)[C@@H](O)C2(F)F)c(=O)n1 [Compound 4, Dodecyl-3-((1-((2R,4R,5R)-3,3-difluoro-4-hydroxy-5-(hydroxymethyl)-tetrahydrofuran-2-yl)-2-oxo-1,2-dihydropyrimidin-4-yl)carbamoyl)pyrazine-2-carboxylate], the “Mean Volume of Tumor” value ([1]; SL-01 middle dosage 60 mg/kg gastric gavage 1 per 3 days, day 7) is reported as 739.6 mm^3, the “Mean Volume of Tumor” value ([1]; SL-01 middle dosage 60 mg/kg gastric gavage 1 per 3 days, day 14) is reported as 823.4 mm^3 and the “Mean Volume of Tumor” value ([1]; SL-01 middle dosage 60 mg/kg gastric gavage 1 per 3 days, day 18) is reported as 870.2 mm^3. The “Mean Volume of Tumor” value ([1]; SL-01 middle dosage 60 mg/kg gastric gavage 1 per 3 days, day 22) was 905.3 mm^3, the “Inhibition ratio (tumor weight)” value [1, 4] was 53.7% and the “Mean Weight of Nude Mice” value ([1]; SL-01 middle dosage 60 mg/kg gavage, day 0) was 19.5 g. For the same compound, the “Mean Weight of Nude Mice” value ([1]; SL-01 middle dosage 60 mg/kg gavage, day 7) was 19.1 g, the “Mean Weight of Nude Mice” value ([1]; SL-01 middle dosage 60 mg/kg gavage, day 14) was 19.6 g and the “Mean Weight of Nude Mice” value ([1]; SL-01 middle dosage 60 mg/kg gavage, day 22) was 19.6 g. The “Tumor Weight, Average Value” [1, 4] was 0.95 g, the “efficacy by t-test, in words” value [1, 5] was “significant efficacy” and the “drop of animal weight” value [1, 5] was 14.8%. For the same compound, the “Mean Volume of Tumor” value ([1]; SL-01 small (low) dosage 30 mg/kg gastric gavage 1 per 3 days, day 7) was 761.3 mm^3, the “Mean Volume of Tumor” value ([1]; SL-01 small (low) dosage 30 mg/kg gastric gavage 1 per 3 days, day 14) was 840.9 mm^3 and the “Mean Volume of Tumor” value ([1]; SL-01 small (low) dosage 30 mg/kg gastric gavage 1 per 3 days, day 18) was 950.5 mm^3. For the same compound, the “Mean Volume of Tumor” value ([1]; SL-01 small (low) dosage 30 mg/kg gastric gavage 1 per 3 days, day 22) was 1092.0 mm^3, the “Inhibition ratio (tumor weight)” value [1, 6] was 48.3% and the “Mean Weight of Nude Mice” value ([1]; SL-01 small dosage 30 mg/kg gavage, day 0) was 19.6 g. For the same compound, the “Mean Weight of Nude Mice” value ([1]; SL-01 small dosage 30 mg/kg gavage, day 7) was 19.3 g, the “Mean Weight of Nude Mice” value ([1]; SL-01 small dosage 30 mg/kg gavage, day 14) was 19.9 g and the “Mean Weight of Nude Mice” value ([1]; SL-01 small dosage 30 mg/kg gavage, day 22) was 19.7 g. The “Tumor Weight, Average Value” [1, 6] was 1.06 g, the “efficacy by t-test, in words” value [1, 7] was “significant efficacy” and the “drop of animal weight” value [1, 7] was 14.3%. It also gave an AUC(0-t) ([2]; analyte SL-01, read-out: AUC0-t, SL-01 Administration Group) of 1810 ng·h/mL, a Cmax ([2]; analyte SL-01, read-out: Cmax, SL-01 Administration Group) of 4370 ng/mL and an MRT last ([2]; analyte SL-01, read-out: MRT0-t, SL-01 Administration Group) of 21.6 min. It also gave a half-life ([2]; analyte SL-01, read-out: T1/2, SL-01 Administration Group (converted)) of 31.1 min and a Tmax ([2]; analyte SL-01, read-out: Tmax, SL-01 Administration Group) of 15 min.
In the case of Nc1ccn([C@@H]2O[C@H](CO)[C@@H](O)C2(F)F)c(=O)n1 [Gemcitabine, gemcitabine, reference compound], the “Mean Volume of Tumor” value ([1]; Gemcitabine 30 mg/kg i.v. 1 per 3 days, day 7) is reported as 700.7 mm^3, the “Mean Volume of Tumor” value ([1]; Gemcitabine 30 mg/kg i.v. 1 per 3 days, day 14) is reported as 759.7 mm^3 and the “Mean Volume of Tumor” value ([1]; Gemcitabine 30 mg/kg i.v. 1 per 3 days, day 18) is reported as 804.5 mm^3. The “Mean Volume of Tumor” value ([1]; Gemcitabine 30 mg/kg i.v. 1 per 3 days, day 22) was 868.0 mm^3, the “Mean Weight of Nude Mice” value ([1]; Gemcitabine 30 mg/kg i.v., day 0) was 19.1 g and the “Mean Weight of Nude Mice” value ([1]; Gemcitabine 30 mg/kg i.v., day 7) was 19.0 g. For the same compound, the “Mean Weight of Nude Mice” value ([1]; Gemcitabine 30 mg/kg i.v., day 14) was 18.6 g, the “Mean Weight of Nude Mice” value ([1]; Gemcitabine 30 mg/kg i.v., day 22) was 18.2 g and the “Tumor Weight, Average Value” ([1]; Gemcitabine 30 mg/kg i.v.) was 0.89 g. For the same compound, the “efficacy by t-test, in words” value ([1]; gemcitabine group 30 mg/kg i.v.) was “significant efficacy”, the AUC(0-t) ([3]; iv) was 11300 ng·h/mL and the Cmax ([3]; iv) was 11500 ng/mL. For the same compound, the Tmax ([3]; iv) was 4.98 min, the half-life ([3]; iv) was 58.2 min and the MRT last ([3]; iv) was 64.2 min. It also gave a bioavailability ([3]; oral, AUCoral/AUCiv, mice, read-out: Absolute bioavailability) of 35.6%, an AUC(0-t) ([3]; po) of 4020 ng·h/mL and a Cmax ([3]; po) of 2600 ng/mL. The Tmax ([3]; po) was 30 min, the half-life ([3]; po) was 49.8 min and the MRT last ([3]; po) was 76.8 min.
